The results in this text go back to patent EP4759815A1, “FUSED TRICYCLIC COMPOUND, PHARMACEUTICAL COMPOSITION THEREOF, AND USE THEREOF” (Haihe Biopharma Co., Ltd., priority 2023, dated 2025).

By IC50 is commonly meant the point on the concentration scale where inhibition reaches its midpoint. In general, AUC(0-t) refers to exposure summed from dosing to a finite time, without extrapolation to infinity. For orientation: clearance means the volume of plasma or blood freed of the substance per unit of time. Lower therefore signals a low capacity for elimination. Usually half-life stands for the time needed for the level to fall by half in the phase considered. Lower therefore signals fast loss.

The test system of one data set is MDA-MB-436 cells. Briefly: MDA-MB-436 cell proliferation inhibition test (CellTiter-Glo, 7 days). The data set is classed as cell-based. Particulars: Homo sapiens, MDA-MB-436, 168 h, 7 days incubation. Background: In ATP-based viability assays light output follows the ATP content of the culture.
Another data set concerns the target T1, PDE3A (Homo sapiens, UniProt Q14432).
T1 construct: purchased ICE G13020203013
Briefly: PDE3A enzyme activity test (IMAP FP). The data set is classed as biochemical. As to conditions: PDE3A protein 0.2 nM, FAM-cAMP 200 nM, 60 minutes at rt; off-target safety.

For data set [1], the target named is Recombinant human PARP1 protein (Homo sapiens, UniProt P09874). The data set can be described thus: PARP1 inhibitory activity (histone substrate, chemiluminescent ELISA). It counts as biochemical. Particulars: for IC50: histone substrate, 500 µM NAD+ added to the substrate solution, read-out: PARP1 IC50; for PARP1/2 Fold selectivity: ratio of PARP2 IC50 to PARP1 IC50. (An ELISA detects its analyte on a solid surface through an enzyme-linked reagent.)

For data set [2], the target named is T2, recombinant human PARP2 protein (Homo sapiens, UniProt Q9UGN5).
T2 construct: purchased BPS 80502
The data set can be described thus: PARP2 inhibitory activity (histone substrate, chemiluminescent ELISA). It counts as biochemical. As to conditions: histone substrate; read-out: PARP2 IC50.

Data set [3] is described as follows: Preliminary pharmacokinetic tests in mice. Particulars: male, ICR. The data set is classed as in vivo.
A short description of data set [4]: Test of blood-brain barrier properties in rats. Particulars: male, Wistar Han, brain/plasma; rat, intravenous 1 mg/kg, after 4 h; read-out: Ratio % (brain/blood). The data set is classed as in vivo.

The structures appear in SMILES notation. Some results are limits rather than exact numbers.

T1 sequence (Q14432 whole entry, species assumed): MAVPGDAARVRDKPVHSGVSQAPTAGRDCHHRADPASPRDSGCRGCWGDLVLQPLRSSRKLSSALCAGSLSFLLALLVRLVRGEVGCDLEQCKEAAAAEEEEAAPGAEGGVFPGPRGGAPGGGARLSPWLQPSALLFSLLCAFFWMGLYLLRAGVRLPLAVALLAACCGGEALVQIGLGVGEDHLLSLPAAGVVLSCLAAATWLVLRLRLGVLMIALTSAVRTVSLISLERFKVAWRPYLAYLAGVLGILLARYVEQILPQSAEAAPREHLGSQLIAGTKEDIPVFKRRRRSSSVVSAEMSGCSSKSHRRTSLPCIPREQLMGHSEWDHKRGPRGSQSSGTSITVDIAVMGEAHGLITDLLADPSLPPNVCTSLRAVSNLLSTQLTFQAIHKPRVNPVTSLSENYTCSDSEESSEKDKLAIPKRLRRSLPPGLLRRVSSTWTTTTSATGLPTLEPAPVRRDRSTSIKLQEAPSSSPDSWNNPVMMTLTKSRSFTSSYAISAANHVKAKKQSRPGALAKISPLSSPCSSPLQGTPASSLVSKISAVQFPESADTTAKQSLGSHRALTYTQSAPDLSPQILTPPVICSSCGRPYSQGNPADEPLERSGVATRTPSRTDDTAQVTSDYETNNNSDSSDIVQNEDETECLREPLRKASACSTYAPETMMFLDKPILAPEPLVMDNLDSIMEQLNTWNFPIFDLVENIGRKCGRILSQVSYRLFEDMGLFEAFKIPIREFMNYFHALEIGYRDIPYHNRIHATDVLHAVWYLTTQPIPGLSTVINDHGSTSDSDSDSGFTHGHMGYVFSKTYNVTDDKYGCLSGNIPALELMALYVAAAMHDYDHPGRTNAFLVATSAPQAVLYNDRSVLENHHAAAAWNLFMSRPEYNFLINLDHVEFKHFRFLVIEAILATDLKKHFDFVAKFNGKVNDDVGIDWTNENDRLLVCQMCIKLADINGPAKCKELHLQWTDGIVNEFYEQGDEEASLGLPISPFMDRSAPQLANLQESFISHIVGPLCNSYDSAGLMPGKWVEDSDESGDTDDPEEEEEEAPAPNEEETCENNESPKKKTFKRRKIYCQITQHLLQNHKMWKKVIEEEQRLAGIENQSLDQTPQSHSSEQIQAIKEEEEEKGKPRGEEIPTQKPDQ
Sequence of Recombinant human PARP1 protein (P09874 whole entry): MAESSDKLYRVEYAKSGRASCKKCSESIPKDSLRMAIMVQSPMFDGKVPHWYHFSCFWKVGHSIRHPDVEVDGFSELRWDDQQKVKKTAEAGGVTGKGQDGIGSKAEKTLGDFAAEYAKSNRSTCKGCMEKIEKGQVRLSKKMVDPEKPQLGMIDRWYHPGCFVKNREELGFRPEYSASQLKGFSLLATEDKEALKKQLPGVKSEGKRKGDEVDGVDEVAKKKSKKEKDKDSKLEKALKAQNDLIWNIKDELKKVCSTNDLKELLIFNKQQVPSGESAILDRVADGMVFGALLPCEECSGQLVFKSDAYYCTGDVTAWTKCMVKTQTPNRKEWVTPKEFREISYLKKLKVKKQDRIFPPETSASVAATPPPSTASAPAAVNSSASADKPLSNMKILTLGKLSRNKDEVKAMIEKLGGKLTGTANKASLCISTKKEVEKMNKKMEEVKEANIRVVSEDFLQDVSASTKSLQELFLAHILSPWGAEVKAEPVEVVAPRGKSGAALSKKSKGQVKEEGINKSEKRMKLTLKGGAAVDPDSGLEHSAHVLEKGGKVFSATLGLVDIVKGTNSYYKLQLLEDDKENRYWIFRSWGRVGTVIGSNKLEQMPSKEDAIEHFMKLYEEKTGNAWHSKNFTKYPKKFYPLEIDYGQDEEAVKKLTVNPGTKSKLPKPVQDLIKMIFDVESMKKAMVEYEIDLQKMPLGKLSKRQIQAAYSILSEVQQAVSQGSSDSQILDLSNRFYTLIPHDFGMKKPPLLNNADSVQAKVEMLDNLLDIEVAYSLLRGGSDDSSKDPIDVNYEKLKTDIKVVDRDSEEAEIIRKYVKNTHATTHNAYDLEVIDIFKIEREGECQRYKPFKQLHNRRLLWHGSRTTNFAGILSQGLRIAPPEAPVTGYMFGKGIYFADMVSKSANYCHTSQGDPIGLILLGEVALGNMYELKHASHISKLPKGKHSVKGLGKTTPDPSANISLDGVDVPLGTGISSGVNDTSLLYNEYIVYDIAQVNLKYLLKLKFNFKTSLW
T2 sequence (Q9UGN5 whole entry): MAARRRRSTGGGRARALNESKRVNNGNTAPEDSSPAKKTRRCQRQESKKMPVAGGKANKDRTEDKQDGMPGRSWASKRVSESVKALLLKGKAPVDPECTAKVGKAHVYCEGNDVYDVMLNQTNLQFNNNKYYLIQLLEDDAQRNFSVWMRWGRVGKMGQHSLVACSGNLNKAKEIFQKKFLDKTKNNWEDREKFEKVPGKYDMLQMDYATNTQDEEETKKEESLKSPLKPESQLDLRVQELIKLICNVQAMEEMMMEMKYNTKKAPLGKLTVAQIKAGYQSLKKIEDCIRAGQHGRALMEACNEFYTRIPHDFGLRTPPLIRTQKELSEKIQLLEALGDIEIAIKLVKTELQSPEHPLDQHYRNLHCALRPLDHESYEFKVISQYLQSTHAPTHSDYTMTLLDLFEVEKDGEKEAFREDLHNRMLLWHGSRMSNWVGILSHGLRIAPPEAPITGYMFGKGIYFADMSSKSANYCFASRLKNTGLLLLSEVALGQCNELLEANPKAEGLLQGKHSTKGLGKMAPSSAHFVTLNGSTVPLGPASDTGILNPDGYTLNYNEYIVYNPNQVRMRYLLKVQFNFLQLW

On to `CNC(=O)c1ccc(N2CCN(Cc3cc4c5c(cnn5c3)N(CC(F)(F)F)C(=O)N4)CC2)c(C)n1` [Compound 61], for which the IC50 with MDA-MB-436 cells came out at 16.2 nM; at PDE3A it was 1440 nM.

For the compound `CNC(=O)c1ccc(N2CCN(Cc3cc4c5c(c3)ncn5[C@H](C3CC3)C(=O)N4)CC2)c(C)n1` [Compound 49-2], the half-maximal inhibitory concentration (IC50) in data set [1] is 1.53 nM; in data set [2], 431 nM; in the data set on MDA-MB-436 cells, 18 nM; against PDE3A, over 10000 nM. Also, in data set [1], the “PARP1/2 Fold selectivity” value was 281.5.

As for `CNC(=O)c1ccc(N2CCN(Cc3cc4c5c(cnn5c3)N(C3CC3)C(=O)N4)CC2)c(C)n1` [Compound 54], the IC50 is 0.4 nM in data set [1], 45.2 nM in data set [2], under 1.52 nM with MDA-MB-436 cells and 428 nM against PDE3A. Moreover, the “PARP1/2 Fold selectivity” value in data set [1] turned out to be 21.1.

Take `CNC(=O)c1ccc(N2CCN(Cc3cc4c5c(cnn5[C@H](C)C(=O)N4)c3)CC2)c(Cl)n1` [Compound 6-2]: 239 nM corresponded to half-maximal inhibition at PDE3A (IC50).

`CNC(=O)c1ccc(N2CCN(Cc3cc4c5c(cnn5c3)N(C(C)C)C(=O)N4)CC2)c(C)n1` [Compound 56]: the IC50 in data set [1] was 3.34 nM; in data set [2] it was 1220 nM; in the data set on MDA-MB-436 cells, 15 nM; against PDE3A, 878 nM. The “PARP1/2 Fold selectivity” value in data set [1] is on record as 364.5.

Regarding `CNC(=O)c1ccc(N2CCN(Cc3cc4c5c(cnn5c3)N(C3CCC3)C(=O)N4)CC2)c(C)n1` [Compound 59], the IC50 in the data set on MDA-MB-436 cells is 6.5 nM; on PDE3A, over 10000 nM.

In the case of `CNC(=O)c1ccc(N2CCN(Cc3cc4c5c(cnn5C5(CC5)C(=O)N4)c3)C[C@H]2C)c(C)n1` [Compound 40], the IC50 came to 0.23 nM in data set [1], 81 nM in data set [2], 17.9 nM in the data set on MDA-MB-436 cells and 635 nM on PDE3A. In data set [1], the “PARP1/2 Fold selectivity” value turned out to be 353.6. The AUC(0-t) in data set [3] (iv, mouse plasma, i.v.(1mg/kg)) stood at 4410 ng·h/mL; in data set [3] (po, mouse plasma, p.o.(5mg/kg)) it was 31100 ng·h/mL. Also, the clearance in data set [3] (iv, mouse plasma, i.v.(1mg/kg)) was found to be 3.8 mL/min/kg. For the same compound, the half-life in data set [3] (iv, mouse plasma, i.v.(1mg/kg)) is 3.6 h; in data set [3] (po, mouse plasma, p.o.(5mg/kg)), 3.1 h. Moreover, the bioavailability in data set [3] (plasma, oral, mouse, p.o.(5mg/kg) versus i.v.(1mg/kg)) came to 124%.

Regarding `CNC(=O)c1ccc(N2CCN(Cc3cc4c5c(cnn5C(C)C(=O)N4)c3)CC2)c(C)n1` (centres unmarked) [Compound 7], the Kp at 4 h in data set [4] amounted to 0.138.

Regarding `CNC(=O)c1ccc(N2CCN(Cc3cc4c5c(c3)ncn5[C@@H](C3CC3)C(=O)N4)CC2)c(Cl)n1` [Compound 47-1], the IC50 is 0.68 nM in data set [1], 901 nM in data set [2], 20.2 nM in the data set on MDA-MB-436 cells and over 10000 nM against PDE3A. For the same compound, the “PARP1/2 Fold selectivity” value in data set [1] was 1326.

On to `CNC(=O)c1ccc(N2CCN(Cc3cc4c5c(c3)ncn5[C@H](C3CC3)C(=O)N4)CC2)c(Cl)n1` [Compound 47-2], for which the IC50 in data set [1] was 1.21 nM; in data set [2], 281 nM; in the data set on MDA-MB-436 cells, 16.7 nM; at PDE3A it was over 10000 nM. Besides, the “PARP1/2 Fold selectivity” value in data set [1] is recorded as 232.5.

Regarding `CNC(=O)c1ccc(N2CCN(Cc3cc4c5c(cnn5c3)N(C)C(=O)N4)CC2)c(C)n1` [Compound 19], the IC50 in data set [1] was 1.42 nM; in data set [2] it was 732 nM; in the data set with MDA-MB-436 cells, under 1.52 nM; against PDE3A, 433 nM. Moreover, the “PARP1/2 Fold selectivity” value in data set [1] was 516.

Regarding `CC[C@@H]1C(=O)Nc2cc(CN3CCN(c4ccc(C(=O)NC)nc4F)CC3)cc3cnn1c23` [Compound 5-2], the IC50 in data set [1] was 1.03 nM; in the data set on MDA-MB-436 cells, 14.8 nM; against PDE3A, over 10000 nM.
